Literature values as cited in patent US5741892A, “Pentapeptides as antitumor agents” (Basf Aktiengesellschaft, priority 1996, dated 1998).

Tests used:
[1] = system: four different human lymphoma cell lines
[2] = synthetic Dolastatin 10
[3] = system: tubulin
[4] = system: P388 lymphocytic leukemia (PS system) cell line

Row | Substance | inhibition of growth of lymphoma cell lines [1] | solubility in aqueous systems [2] | inhibition of tubulin polymerization [3] | inhibition of cell growth [4]
1 | Dolastatin 10 | effectively inhibit | poor solubility in aqueous systems | effectively inhibit | 
2 | Dolastatin 15 | effectively inhibit |  | effectively inhibit | inhibits the growth
